Results reported in US5104814A, “Assay kit and methods for neuroleptic drugs” (Schering Corporation, priority 1990, dated 1992).
pKi: −log10 of the molar value.

Assays:
D-1 receptor [1] = molecular target: T1, D-1 receptor (Rattus norvegicus, UniProt P18901); assay: Competition binding with [N-methyl-^3 H] Compound as radioligand in rat striatal tissue; details: rat striatum, radioligand 1.0 nM; read-out: KI, inhibition of binding of the labelled Compound
T1 construct: Striatal tissue was excised, pooled, and homogenized; from tissue; host or cells: striatum of male Sprague-Dawley rats, homogenized and washed by centrifugation
Protocol: (§1) Male Sprague-Dawley rats (200 to 250 g) from Charles River Breeding Laboratories, Mass. were used to obtain brain tissue. The rats were decapitated, their brains removed and placed on ice. Striatal tissue was excised, pooled, and homogenized (Brinkman Polytron, 10 sec) in 100 volumes (v/v) of ice cold 50mM Tris-HCl buffer, pH 7.4 (at 25° C.). The homogenate was centrifuged at 20,000×g for 10 min. The resultant pellet was rehomogenized in Tris-HCl buffer and centrifuged again. The final pellet was resuspended in 50 mM Tris-HCl buffer pH 7.4 containing 120 mM NaCl, 5 mM KCL, 2 mM CaCl2, and 1 mM MgCl2.
To test the receptor specificity of [N-methyl-^3 H]

D-1 receptor [2] = molecular target: T1, D-1 receptor; assay: Saturation binding of [N-methyl-^3 H] Compound in rat striatum; details: binding as a function of radioligand concentration, 25 min
Protocol: as §1

rat striatal membranes = assay: In vivo labeling of rat striatal membranes by [N-methyl-^3 H] Compound after subcutaneous injection
[3] = Recovery of radioactivity from polypropylene assay tubes (adsorption onto surfaces); type: physicochemical; details: polypropylene tubes used in these experiments
dopamine D-1 receptors = details: J. Pharmacol. Exp. Ther., 226: 462 (1983); cited from earlier work

T1 sequence (P18901 whole entry): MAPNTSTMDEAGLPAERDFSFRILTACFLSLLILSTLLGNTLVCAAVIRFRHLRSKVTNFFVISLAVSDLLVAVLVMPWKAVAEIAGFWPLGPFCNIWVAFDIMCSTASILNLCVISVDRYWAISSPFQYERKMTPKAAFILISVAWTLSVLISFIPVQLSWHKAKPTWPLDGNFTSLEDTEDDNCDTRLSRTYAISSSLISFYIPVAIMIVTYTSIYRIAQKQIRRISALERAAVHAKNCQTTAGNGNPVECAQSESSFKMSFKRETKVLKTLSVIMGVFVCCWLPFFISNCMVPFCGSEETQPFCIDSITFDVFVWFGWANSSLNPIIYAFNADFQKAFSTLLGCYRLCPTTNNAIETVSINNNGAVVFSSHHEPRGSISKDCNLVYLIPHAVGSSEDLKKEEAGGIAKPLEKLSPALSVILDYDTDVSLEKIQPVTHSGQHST

CN1CCc2cc(Cl)c(O)cc2[C@H]2c3ccccc3CC[C@@H]21 [Compound, [-]trans 6,7,7a,8,9,13b-hexahydro-3-chloro-2-hydroxy-N-methyl-5H-benzo[d]naphtho[2,1-b]-azepine]
pKi (D-1 receptor [1]): 8.44

[3H]C([3H])([3H])N1CCc2cc(Cl)c(O)cc2C2c3ccccc3CCC21 (stereo not drawn) [[N-methyl-^3 H] Compound]
KD (disassociation constant) (D-1 receptor [2]): 1.7 nM | time of optimal binding after subcutaneous injection (rat striatal membranes; subcutaneous, striatal membranes): 1 h | recoverable radioactivity from the polypropylene tubes [3]: 97%

CN1CCc2cc(Cl)c(O)cc2[C@@H](c2ccccc2)C1 [R-(+)-8-chloro-2,3,4,5-tetrahydro-3-methyl-5-phenyl-1H-3-benzazepine-7-ol, reference compound]
inhibition of striatal binding of [N-methyl-^3 H] Compound in vivo (rat striatal membranes; 1 umole of inhibitor): 90% | selectivity for dopamine D-1 receptors over D-2 receptors (dopamine D-1 receptors): 2500 fold
